Test results as given in paper PMC6572064, “Discovery of 2-(1-(3-(4-Chloroxyphenyl)-3-oxo- propyl)pyrrolidine-3-yl)-1H-benzo[d]imidazole-4-carboxamide: A Potent Poly(ADP-ribose) Polymerase (PARP) Inhibitor for Treatment of Cancer” (Molecules, 2019).
Read-outs that look alike come from different tables or passages of the source.

What was measured:
[1] = tested on: CAPAN-1 (a BRCA-2-mutated pancreatic cancer cell line); assay: Cell proliferation assay, three-day, CellTiter-Glo, CAPAN-1; assay type: cell-based; details: for IC50 / inhibition at 0.00508 µM / inhibition at 0.0152 µM / inhibition at 0.0457 µM / inhibition at […] / inhibition at 0.41 µM / inhibition at 1.23 µM / inhibition at 3.7 µM / inhibition at 11.11 µM / inhibition at 33.33 µM / inhibition at 100 µM: Homo sapiens; for inhibition at 0.00508 µM: CAPAN-1, 0.00508 uM; for inhibition at 0.0152 µM: CAPAN-1, 0.0152 uM; for inhibition at 0.0457 µM: CAPAN-1, 0.0457 uM; for inhibition at […]: CAPAN-1, 0.14 uM; for inhibition at 0.41 µM: CAPAN-1, 0.41 uM; for inhibition at 1.23 µM: CAPAN-1, 1.23 uM; for inhibition at 3.7 µM: CAPAN-1, 3.70 uM; for inhibition at 11.11 µM: CAPAN-1, 11.11 uM; for inhibition at 33.33 µM: CAPAN-1, 33.33 uM; for inhibition at 100 µM: CAPAN-1, 100.00 uM
Method in brief: (§1)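 Luminescent ATP read-out (CellTiter-Glo, 60 min at room temperature) quantified viability after a 72 h compound exposure at 37 °C, 5% CO2. Compounds, diluted from DMSO stocks into growth medium, were added to cells plated the previous day.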

PARP-2 = biological target: T1, PARP-2 (Homo sapiens, UniProt Q9UGN5); assay: PARP-2 inhibition assay (PARP-2 Chemiluminescent Assay Kit, BPS Bioscience); assay type: biochemical; details: for inhibition at 0.01 µM: 10 nM compound
T1 construct: purchased BPS Bioscience 80552
Experimental: (§2) The PARP-1 and PARP-2 inhibition assays were performed in outsourcing, by a CRO company, Shanghai Medicilon Inc. (Shanghai, China). […] Briefly, PARP-1 or PARP-2 biotinylated substrate was incubated with compounds or solvent control at varying concentrations and an assay buffer containing the PARP-1 or PARP-2 enzyme.

[2] = tested on: MDA-MB-436 (a BRCA-1-mutated breast cancer cell line); assay: Cell proliferation assay, three-day, CellTiter-Glo, MDA-MB-436; assay type: cell-based; details: for inhibition at 0.00508 µM / inhibition at 0.0152 µM / inhibition at 0.0457 µM / inhibition at 0.41 µM / inhibition at 1.23 µM / inhibition at 3.7 µM / inhibition at 11.11 µM / inhibition at 33.33 µM / inhibition at 100 µM / IC50: Homo sapiens; for inhibition at 0.00508 µM: MDA-MB-436, MDA-MB-436, Conc. 0.00508 uM; for inhibition at 0.0152 µM: MDA-MB-436, MDA-MB-436, Conc. 0.0152 uM; for inhibition at 0.0457 µM: MDA-MB-436, MDA-MB-436, Conc. 0.0457 uM; for inhibition at 0.41 µM: MDA-MB-436, MDA-MB-436, Conc. 0.41 uM; for inhibition at 1.23 µM: MDA-MB-436, MDA-MB-436, Conc. 1.23 uM; for inhibition at 3.7 µM: MDA-MB-436, MDA-MB-436, Conc. 3.70 uM; for inhibition at 11.11 µM: MDA-MB-436, MDA-MB-436, Conc. 11.11 uM; for inhibition at 33.33 µM: MDA-MB-436, MDA-MB-436, Conc. 33.33 uM; for inhibition at 100 µM: MDA-MB-436, MDA-MB-436, Conc. 100.00 uM
Method in brief: as §1

PARP-1 = biological target: T2, PARP-1 (Homo sapiens, UniProt P09874); assay: PARP-1 inhibition assay (PARP-1 Chemiluminescent Assay Kit, BPS Bioscience); assay type: biochemical; details: for inhibition at 0.01 µM: 10 nM compound
T2 construct: purchased BPS Bioscience 80569
Experimental: as §2

T2 sequence (P09874 whole entry): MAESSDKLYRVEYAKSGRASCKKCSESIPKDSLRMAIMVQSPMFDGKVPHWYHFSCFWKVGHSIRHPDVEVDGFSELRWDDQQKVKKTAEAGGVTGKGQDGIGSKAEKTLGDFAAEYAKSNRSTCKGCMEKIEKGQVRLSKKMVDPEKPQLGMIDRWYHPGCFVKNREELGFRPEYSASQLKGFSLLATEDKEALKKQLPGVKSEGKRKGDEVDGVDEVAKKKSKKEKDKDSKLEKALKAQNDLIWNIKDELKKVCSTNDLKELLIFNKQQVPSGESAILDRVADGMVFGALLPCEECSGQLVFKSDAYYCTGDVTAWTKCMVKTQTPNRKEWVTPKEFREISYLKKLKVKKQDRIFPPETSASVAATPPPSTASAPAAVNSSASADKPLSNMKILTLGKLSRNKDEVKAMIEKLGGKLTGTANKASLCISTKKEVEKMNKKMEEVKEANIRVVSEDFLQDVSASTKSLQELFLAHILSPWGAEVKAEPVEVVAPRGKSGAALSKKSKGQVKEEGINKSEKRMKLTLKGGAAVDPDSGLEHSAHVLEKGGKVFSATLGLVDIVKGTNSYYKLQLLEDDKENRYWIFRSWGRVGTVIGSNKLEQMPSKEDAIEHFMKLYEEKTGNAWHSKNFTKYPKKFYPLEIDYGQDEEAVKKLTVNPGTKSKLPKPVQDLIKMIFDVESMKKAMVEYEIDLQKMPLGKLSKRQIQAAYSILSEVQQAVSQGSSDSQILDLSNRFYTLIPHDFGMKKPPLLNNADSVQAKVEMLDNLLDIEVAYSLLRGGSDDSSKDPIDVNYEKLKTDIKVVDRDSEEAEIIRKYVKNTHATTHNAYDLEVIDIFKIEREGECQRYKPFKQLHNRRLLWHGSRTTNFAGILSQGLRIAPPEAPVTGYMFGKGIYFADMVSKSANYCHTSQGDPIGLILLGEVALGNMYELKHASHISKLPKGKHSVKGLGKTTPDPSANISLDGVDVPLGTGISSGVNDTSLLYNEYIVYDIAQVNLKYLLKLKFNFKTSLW
T1 sequence (Q9UGN5 whole entry): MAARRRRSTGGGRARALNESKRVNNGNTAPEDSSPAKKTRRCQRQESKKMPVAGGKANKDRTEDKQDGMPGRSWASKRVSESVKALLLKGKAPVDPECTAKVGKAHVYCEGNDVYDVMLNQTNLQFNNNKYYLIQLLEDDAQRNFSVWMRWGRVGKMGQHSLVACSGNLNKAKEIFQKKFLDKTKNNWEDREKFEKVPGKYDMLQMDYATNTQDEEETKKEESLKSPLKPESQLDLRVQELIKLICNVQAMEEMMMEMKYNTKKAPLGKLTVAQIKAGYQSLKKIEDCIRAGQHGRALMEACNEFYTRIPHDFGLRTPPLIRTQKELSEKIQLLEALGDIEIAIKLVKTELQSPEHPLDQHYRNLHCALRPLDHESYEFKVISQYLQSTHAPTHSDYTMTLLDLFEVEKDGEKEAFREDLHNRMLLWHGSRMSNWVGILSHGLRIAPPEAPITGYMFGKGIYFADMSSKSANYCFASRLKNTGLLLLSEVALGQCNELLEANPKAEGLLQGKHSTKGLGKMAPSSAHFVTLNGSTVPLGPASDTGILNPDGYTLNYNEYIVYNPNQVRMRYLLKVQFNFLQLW

IC50 ([1]; CAPAN-1, 72 h, CellTiter-Glo, read-out: CAPAN-1 IC50): 48.1 µM
IC50 ([1]; CAPAN-1, 72 h, supplement Summary sheet, read-out: IC50): 48.1 µM
IC50 ([1]; CAPAN-1, curve-fit output, concentrations in uM, read-out: IC50): 48.1 µM
inhibition at 0.01 µM (PARP-2; supplement sheet, read-out: 10 nM inhibition% PAPR-2): 62.5%
inhibition at 0.01 µM (PARP-2; read-out: PARP-2 Inhibition % (10 nM)): 62.5%
IC50 (PARP-2; read-out: PARP-2 IC50): 0.0045 µM
IC50 (PARP-2; supplement sheet, read-out: IC50 PAPR-2): 0.00452 µM
IC50 ([2]; MDA-MB-436, 72 h, CellTiter-Glo, read-out: MDA-MB-436 IC50): 38.6 µM
IC50 ([2]; MDA-MB-436, 72 h, supplement Summary sheet, read-out: IC50): 38.6 µM
IC50 ([2]; MDA-MB-436, curve fit list, no unit in the cell, concentration in uM, read-out: IC50): 38.6 µM
inhibition at 0.01 µM (PARP-1; supplement sheet, read-out: 10 nM inhibition% PAPR-1): 59.2%
inhibition at 0.01 µM (PARP-1; read-out: PARP-1 Inhibition % (10 nM)): 59.2%
IC50 (PARP-1; read-out: PARP-1 IC50): 0.0059 µM
IC50 (PARP-1; supplement sheet, read-out: IC50 PAPR-1): 0.00586 µM
Compound: COc1ccc(C(=O)CCN2CCC(c3nc4c(C(N)=O)cccc4[nH]3)C2)cc1 (centres unmarked) [Compound 5ci, 2-(1-(3-(4-Methoxyphenyl)-3-oxopropyl)pyrrolidin-3-yl)-1H-benzo[d]imidazole-4-carboxamide]
LogIC50 ([1]; CAPAN-1, curve-fit output, Log (uM)): 1.682
inhibition at 0.00508 µM ([1]; replicate 1, read-out: Inh % 1): 3.5%
inhibition at 0.00508 µM ([1]; replicate 2, read-out: Inh % 2): -8.1%
inhibition at 0.0152 µM ([1]; replicate 1, read-out: Inh % 1): 3.7%
inhibition at 0.0152 µM ([1]; replicate 2, read-out: Inh % 2): 5.2%
inhibition at 0.0457 µM ([1]; replicate 1, read-out: Inh % 1): 2.3%
inhibition at 0.0457 µM ([1]; replicate 2, read-out: Inh % 2): -3.2%
inhibition at […] ([1]; replicate 1, read-out: Inh % 1): 7.9%
inhibition at […] ([1]; replicate 2, read-out: Inh % 2): 5.4%
inhibition at 0.41 µM ([1]; replicate 1, read-out: Inh % 1): 9.3%
inhibition at 0.41 µM ([1]; replicate 2, read-out: Inh % 2): -5.7%
inhibition at 1.23 µM ([1]; replicate 1, read-out: Inh % 1): -11.8%
inhibition at 1.23 µM ([1]; replicate 2, read-out: Inh % 2): -10.7%
inhibition at 3.7 µM ([1]; replicate 1, read-out: Inh % 1): 0.241%
inhibition at 3.7 µM ([1]; replicate 2, read-out: Inh % 2): -0.2%
inhibition at 11.11 µM ([1]; replicate 1, read-out: Inh % 1): 6%
inhibition at 11.11 µM ([1]; replicate 2, read-out: Inh % 2): -3.5%
inhibition at 33.33 µM ([1]; replicate 1, read-out: Inh % 1): 27.1%
inhibition at 33.33 µM ([1]; replicate 2, read-out: Inh % 2): 18.7%
inhibition at 100 µM ([1]; replicate 1, read-out: Inh % 1): 85.7%
inhibition at 100 µM ([1]; replicate 2, read-out: Inh % 2): 75.3%
inhibition at 0.00508 µM ([2]; replicate 1, read-out: Inh % 1): -3.7%
inhibition at 0.00508 µM ([2]; replicate 2, read-out: Inh % 2): -7.9%
inhibition at 0.0152 µM ([2]; replicate 1, read-out: Inh % 1): -0.252%
inhibition at 0.0152 µM ([2]; replicate 2, read-out: Inh % 2): -7.1%
inhibition at 0.0457 µM ([2]; replicate 1, read-out: Inh % 1): -8.5%
inhibition at 0.0457 µM ([2]; replicate 2, read-out: Inh % 2): -13.5%
inhibition at 0.41 µM ([2]; replicate 1, read-out: Inh % 1): -19.2%
inhibition at 0.41 µM ([2]; replicate 2, read-out: Inh % 2): -15.9%
inhibition at 1.23 µM ([2]; replicate 1, read-out: Inh % 1): -9.5%
inhibition at 1.23 µM ([2]; replicate 2, read-out: Inh % 2): -17.4%
inhibition at 3.7 µM ([2]; replicate 1, read-out: Inh % 1): -10.7%
inhibition at 3.7 µM ([2]; replicate 2, read-out: Inh % 2): -17.4%
inhibition at 11.11 µM ([2]; replicate 1, read-out: Inh % 1): -13.6%
inhibition at 11.11 µM ([2]; replicate 2, read-out: Inh % 2): -15.6%
inhibition at 33.33 µM ([2]; replicate 1, read-out: Inh % 1): 7.8%
inhibition at 33.33 µM ([2]; replicate 2, read-out: Inh % 2): 1.7%
inhibition at 100 µM ([2]; replicate 1, read-out: Inh % 1): 89.3%
inhibition at 100 µM ([2]; replicate 2, read-out: Inh % 2): 86.7%
LogIC50 ([2]; MDA-MB-436, curve fit on Log (uM) concentrations): ~ 1.587
Bottom ([2]; MDA-MB-436, curve fit parameter (Inh %)): -11.35
Top ([2]; MDA-MB-436, curve fit parameter (Inh %), '= 100.0' is a constrained value): 88
